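Method: 48-hour compound exposure of cells in 96-well plates, five concentrations, linear interpolation of endpoints. GI50: concentration for 50% inhibition of growth.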 Active and inactive are the calls of the source. No stated cut-off is given here; in the data, active = GI50 up to about 1.1 µM and inactive = higher.
Assays:
Assay in all cases: NCI-60 cell line screen, 48 h
786-0 = system: 786-0
A549 = system: A549
EKVX = system: EKVX
HL-60 = system: HL-60
KM12 = system: KM12
LOX IMVI = system: LOX IMVI
OVCAR-5 = system: OVCAR-5
RXF 393 = system: RXF 393
SK-MEL-2 = system: SK-MEL-2
SK-MEL-5 = system: SK-MEL-5
SK-OV-3 = system: SK-OV-3
SNB-19 = system: SNB-19
IGROV-1 = system: IGROV-1
SR = system: SR
UACC-62 = system: UACC-62

Measured: GI50

COc1ccc(C(=O)C(c2ccc(OC)cc2)C2(O)C(=O)Nc3c(Cl)cc(Cl)cc32)cc1 (stereo unspecified)
inactive: 786-0 14.3 µM | A549 24.2 µM | EKVX 18.7 µM | HL-60 4.68 µM | KM12 17.8 µM | LOX IMVI 19.3 µM | OVCAR-5 20.1 µM | RXF 393 22.3 µM | SK-MEL-2 14.1 µM | SK-MEL-5 18.5 µM | SK-OV-3 50.7 µM | SNB-19 23.8 µM

CCCCCCCC(=O)NCC(O)CNC(=O)CCCCCCC
inactive: 786-0 > 100 µM | A549 > 100 µM | EKVX > 100 µM | HL-60 > 100 µM | IGROV-1 > 100 µM | KM12 > 100 µM | LOX IMVI > 100 µM | OVCAR-5 > 100 µM | RXF 393 > 100 µM | SK-MEL-5 > 100 µM | SK-OV-3 > 100 µM | SNB-19 > 100 µM | SR > 100 µM | UACC-62 > 100 µM

Cc1nc2c(n1CC(C)C)C(=O)c1ccccc1C2=O
inactive: 786-0 55.1 µM | A549 32.9 µM | EKVX 38 µM | HL-60 23 µM | IGROV-1 32.6 µM | KM12 37.9 µM | LOX IMVI 29.3 µM | RXF 393 35.2 µM | SK-MEL-2 25.5 µM | SK-MEL-5 18.8 µM | SK-OV-3 62.4 µM | SNB-19 51.5 µM | SR 41.6 µM | UACC-62 20.7 µM

CC(Oc1cc2oc(=O)cc(-c3ccccc3)c2cc1Cl)C(=O)O (stereo unspecified)
inactive: 786-0 > 100 µM | A549 > 100 µM | EKVX > 100 µM | HL-60 > 100 µM | IGROV-1 > 100 µM | KM12 > 100 µM | LOX IMVI > 100 µM | RXF 393 > 100 µM | SK-MEL-5 > 100 µM | SK-OV-3 > 100 µM | SNB-19 > 100 µM | SR > 100 µM | UACC-62 > 100 µM

CCN(CC)CC(C(=O)Nc1c(C)cccc1C)/C(C)=N/NC(N)=S (stereo unspecified)
inactive: 786-0 > 100 µM | A549 > 100 µM | EKVX > 100 µM | HL-60 > 100 µM | IGROV-1 > 100 µM | KM12 > 100 µM | LOX IMVI > 100 µM | OVCAR-5 > 100 µM | RXF 393 > 100 µM | SK-MEL-2 > 100 µM | SK-MEL-5 > 100 µM | SK-OV-3 > 100 µM | UACC-62 > 100 µM

C/C=C(/I)CBr
inactive: 786-0 17 µM | A549 24.3 µM | EKVX 21.7 µM | HL-60 4.49 µM | IGROV-1 16 µM | LOX IMVI 16.2 µM | OVCAR-5 > 10 µM | RXF 393 17.3 µM | SK-MEL-2 14.4 µM | SK-MEL-5 15.5 µM | SK-OV-3 30.8 µM | SNB-19 23.7 µM | UACC-62 15.5 µM

CC(C(=O)n1c2ccccc2c2ccccc21)N(c1ccccc1)c1ccccc1 (stereo unspecified)
inactive: 786-0 16.6 µM | A549 20.4 µM | EKVX 19.4 µM | HL-60 4.46 µM | IGROV-1 18.3 µM | LOX IMVI 16.7 µM | OVCAR-5 18.4 µM | RXF 393 14.6 µM | SK-MEL-2 15.1 µM | SK-MEL-5 20.1 µM | SK-OV-3 18.7 µM | SNB-19 45.1 µM | SR 8.93 µM | UACC-62 17.6 µM

Nc1nc(N)c(N=O)c(Nc2ccc(Br)cc2)n1
inactive: 786-0 28.7 µM | A549 41.9 µM | EKVX 40.8 µM | HL-60 > 100 µM | IGROV-1 3.46 µM | KM12 33.8 µM | LOX IMVI 18.2 µM | OVCAR-5 31.2 µM | SK-MEL-2 21.4 µM | SK-OV-3 32.4 µM | SNB-19 45.1 µM | SR > 100 µM | UACC-62 5.5 µM

O=C1OC(=O)C2C3CCC(O3)C12 (stereo unspecified)
inactive: 786-0 > 100 µM | A549 > 100 µM | EKVX > 100 µM | HL-60 > 100 µM | IGROV-1 > 100 µM | KM12 > 100 µM | OVCAR-5 > 100 µM | RXF 393 > 100 µM | SK-MEL-2 > 100 µM | SK-MEL-5 > 100 µM | SK-OV-3 > 100 µM | SNB-19 > 100 µM | SR > 100 µM | UACC-62 > 100 µM

CC1=NN=C(NCCN(C)C)C/C1=C/c1ccccc1Cl
inactive: 786-0 > 100 µM | A549 > 100 µM | EKVX > 100 µM | IGROV-1 > 100 µM | KM12 > 100 µM | LOX IMVI 90.6 µM | OVCAR-5 79.1 µM | RXF 393 95.1 µM | SK-MEL-2 > 100 µM | SK-MEL-5 48.6 µM | SK-OV-3 > 100 µM | SNB-19 > 100 µM | UACC-62 > 100 µM

C=CCOC(C)n1c(C)cc(=O)n(C(C)OCC=C)c1=O (stereo unspecified)
inactive: 786-0 > 100 µM | A549 > 100 µM | EKVX > 100 µM | HL-60 > 100 µM | IGROV-1 > 100 µM | RXF 393 > 100 µM | SK-MEL-5 > 100 µM | SK-OV-3 > 100 µM | SNB-19 > 100 µM | SR > 100 µM | UACC-62 > 100 µM

Cc1cc2c(cc1C)[n+]([O-])c(-c1c(Cl)cccc1Cl)c(N)[n+]2[O-]
inactive: 786-0 52 µM | A549 30.1 µM | EKVX 46.3 µM | HL-60 26 µM | IGROV-1 41.3 µM | KM12 37.2 µM | LOX IMVI 44.7 µM | OVCAR-5 > 100 µM | SK-MEL-2 31.6 µM | SK-MEL-5 20.7 µM | SK-OV-3 66.4 µM | SNB-19 25.5 µM | UACC-62 23.2 µM

COC(=O)C(CCCC1(c2ccccc2)OCCO1)C(C)=O (stereo unspecified)
inactive: 786-0 > 100 µM | A549 > 100 µM | EKVX > 100 µM | HL-60 > 100 µM | IGROV-1 > 100 µM | KM12 > 100 µM | LOX IMVI > 100 µM | OVCAR-5 > 100 µM | RXF 393 > 100 µM | SK-MEL-2 > 100 µM | SK-MEL-5 66.4 µM | SK-OV-3 > 100 µM | SNB-19 > 100 µM | SR 85.1 µM

COC1OC(C)C(OC(=O)C(C)(C)C)C(C)(O)C1O (stereo unspecified)
inactive: 786-0 > 100 µM | A549 > 100 µM | HL-60 > 100 µM | IGROV-1 > 100 µM | KM12 > 100 µM | LOX IMVI > 100 µM | OVCAR-5 > 100 µM | RXF 393 > 100 µM | SK-MEL-5 > 100 µM | SNB-19 > 100 µM | SR > 100 µM | UACC-62 > 100 µM

Cc1ccc(C)c(N2C(=O)C(=O)C(c3nc4ccccc4o3)/C(=N/N)C2=O)c1 (stereo unspecified)
inactive: 786-0 > 100 µM | A549 > 100 µM | EKVX > 100 µM | HL-60 > 100 µM | IGROV-1 > 100 µM | KM12 > 100 µM | RXF 393 > 100 µM | SK-MEL-2 > 100 µM | SK-MEL-5 > 100 µM | SK-OV-3 > 100 µM | SNB-19 > 100 µM | SR > 100 µM | UACC-62 > 100 µM

Reference: ChEMBL document CHEMBL1201862, “PubChem BioAssay data set” (2004)
